For data set [1], the system named is LNCaP prostate tumor xenografts. In words: T1-weighted MRI at 1 Tesla, LNCaP tumors (Example 3). The format is in vivo, mouse. As to conditions: 0.1 mmol/kg i.v., up to 30 min. The protocol: Male athymic nude mice were purchased from Case Comprehensive Cancer Center (Cleveland, Ohio, USA) and housed in the Animal Core Facility at Case Western Reserve University. All animal experiments were performed in accordance with the animal protocol approved by the CWRU Institutional Animal Care and Use Committee. Athymic nude male mice were subcutaneously injected with 100 μL cell suspension (4×10^7 cells/mL) in matrigel matrix (Corning Bioscience, Corning, N.Y.) to initiate tumors. Mice with tumors of 5-8 mm in diameter were used for imaging studies.
MR images of tumor bearing mice were acquired on an Aspect M3 small animal MRI scanner (1 Tesla). Mice were placed on a holder with the temperature maintained at 37° C., with isoflurane/oxygen mixture supplied to the mice through a nose cone. A thin catheter filled with PBS was connected to a tail vein of the mice. After mice were placed in the coil, a pilot scan was performed to adjust mice to the proper location in the coil. […] Images were exported into DICOM data, which were then processed and analyzed using Matlab (Natick, Mass., USA). The contrast to-noise ratio of tumors in the images were calculated as the difference between tumor mean intensity minus muscle mean intensity, divided by the noise.

Data set [2] can be described thus: r1 relaxivity by T1 mapping in PC3 tumor lysates. Type of data set: physicochemical.
A short description of data set [3]: Relaxivity measurement at 7T in PBS. Type of data set: physicochemical. As to the method: To accurately capture T1 maps, a fast T1 mapping method was developed. This accelerated multi-slice T1-mapping method combines a saturation recovery look-locker sequence and spiral k-space sampling^40. The NMR tubes filled with 3.12-50 μM ZD2-Gd(HP-DO3A) were positioned in a mouse coil and scanned with T1-weighted spin echo sequence, cartesian T1-mapping sequence, and spiral T1-mapping sequence. Axial images were acquired. CNR values from the T1-weighted sequence were calculated from signal from the samples subtracting surrounding water signal, and divided by noise. T1 values of the samples were reconstructed by fitting signal change during the acquisition time to the adapted T1-relaxation curve.

Data set [4] concerns LNCaP prostate tumor xenografts. Put plainly: In vivo T1-weighted MRI at 7T, LNCaP tumors. Also on record: species or system mouse. As to the method:
All MRI experiments were performed on a horizontal 7T Bruker scanner (Bruker Biospin Co., Billerica, Mass.). Imaging experiments were performed when the tumor size reached 5-8 mm in diameter. ZD2-Gd(HP-DO3A) was administered intravenously at the dose of 0.1 mmol/kg after acquiring pre-contrast images. Post-contrast images were obtained at 10 min interval up to 30 min. The axial slices of mouse at the tumor location were acquired using T1-weighted spin echo sequence with the following parameters: field of view (FOV): 3 cm; slice thickness: 1.2 mm; interslice distance: 1.2 mm; TR: 500 ms, TE: 8.1 ms; flip angle: 90°; average: 2; matrix size: 128×128. Contrast-to-noise ratio (CNR) at each time point was calculated by subtraction of the average signal intensity in the tumor and muscle, divided by the standard deviation of image noise. ProHance® (gadoteridol) was used as a control in the imaging experiments.

The next data set concerns LNCaP tumors. The conditions noted are these: 30 min after injection; before injection 3.21±0.12 s. As to the method:
(§1) The following imaging parameters were used for T1 mapping methods: flip angle 10°; echo time 2.09 ms; slice thickness 1 mm; number of average 1; field of view 3×3 cm^2; matrix size 128×128. For each slice, 50 images that covered 5 s of the saturation recovery curve were acquired within an interval of 100 ms. Proton density (Mn) images were acquired with repetition time (TR) of 2 s. Cartesian MRSLL images were also acquired as a validation of spiral MRSLL method. Center 64 k-space lines were acquired in Cartesian method as described previously. Other acquisition parameters were the same as spiral MRSLL.
(§2) Quantitative T1 maps of the tumors were acquired before and at 30 min after the injection of ZD2-Gd(HP-DO3A) and ProHance. […] At the end of the T1 map acquisitions, the mice were sacrificed and the Gd concentration in their tumors was measured by inductively coupled plasma optical emission spectrometry (ICP-OES).

Another data set concerns PC3 tumors. As to the method:
as §1, §2

Data set [5] can be described thus: In vivo transmetallation and urinary excretion. Details: species or system mouse. As to conditions: 0.1 mmol-Gd/kg. The protocol:
Balb/c mice (Charles River Laboratories, Wilmington, Mass., USA) were randomly divided into groups of ZD2-Gd(HP-DO3A) and ProHance (n=5) and placed in the metabolism cages, 48 hours prior to injection. […] Urine samples were collected at 12 h pre-injection, and then 8, 24, 48, and 72 h post-injection from the metabolic box. The collected urine samples were centrifuged at 4,000 rpm for 15 min. The concentration of Gd(III), Zn(II), Cu(H), and Ca(II) in the supernatant of the urine samples was determined by ICP-OES after appropriate dilutions.

Data set [6] in a line: Relaxivity at 1.5T in water, 37° C. Type of data set: physicochemical. The protocol:
Relaxivity is an important parameter for an MR contrast agent. It reflects how the relaxation rate of the surrounding water proton changes as a function of concentration, and it is directly associated with the agent's contrast enhancing capability during imaging. The relaxivity of the 4 contrast agents was tested at 37° C. in water and compared to Gd(HP-DO3A), Gd-DOTA and ZD2-Gd(HP-DO3A) (FIG. 26). […] Compared to Gd(HP-DO3A), Gd-DOTA, the size increase of the targeted contrast agents due to the peptides and PEG spacer could result in an increase of τR,^[42, 43] thus leading to higher relaxivities.

Entries after “also recorded” stand apart in the source; their conditions may differ. Where a SMILES comes first, the peptide text is derived from it. The star is where a group is joined. X1 = O=C(O)CN1CCN(CC(=O)O)CCN(CC(O)Cn2cc(CCCC(=O)*)nn2)CCN(CC(=O)O)CC1; PEG2 = NCCOCCOCCC(=O)O

`CC(C)[C@H](NC(=O)[C@@H](NC(=O)CCOCCOCCNC(=O)CCCc1cn(CC(O)CN2CCN(CC(=O)O)CCN(CC(=O)O)CCN(CC(=O)O)CC2)nn1)[C@@H](C)O)C(=O)N[C@@H](CCCNC(=N)N)C(=O)N[C@H](C(=O)N[C@@H](CO)C(=O)N[C@@H](C)C(=O)N[C@@H](CC(=O)O)C(=O)O)[C@@H](C)O` (some centres unmarked) [ZD2-Gd(HP-DO3A)] ({X1-PEG2}-TVRTSAD-OH): the “signal enhancement in LNCaP tumors” value in data set [1] is recorded as “significantly lower signal enhancement; also recorded: did not produce significant contrast enhancement”; in data set [4] (0.1 mmol/kg i.v., up to 30 min, 7T), “significantly lower signal enhancement”. The r1 relaxivity in data set [2] was found to be 4.12 mM⁻¹ s⁻¹. The T1 relaxivity in data set [3] was 3.7 mM⁻¹ s⁻¹. For the same compound, the “CNR in LNCaP tumors” value in data set [4] (10-30 min post-injection) is recorded as 6-9. In addition, the “increase of CNR in LNCaP tumors” value in data set [4] (during the first 30 min after injection) is recorded as 10-60%. The “CNR in LNCaP tumors relative to PC3 tumors” value in data set [4] (first 30 min) was “more than two times lower”. Further, the “tumor T1” value in the data set with LNCaP tumors stood at 2.54 ± 0.13 s; with PC3 tumors (30 min after injection, before injection 2.75±0.05 s) it was 1.81 ± 0.07 s. Moreover, the “change in relaxation rate (ΔR1)” value in the data set with PC3 tumors (among all cases (PC3/LNCaP, ZD2-Gd(HP-DO3A)/ProHance)) was “highest relaxation rate change”. Moreover, in the data set with PC3 tumors (mouse, in vivo), the “Gd concentration in PC3 tumors by ICP-OES” value is recorded as “significantly higher concentration”. In addition, the “urine concentration of endogenous metal ions post-injection vs pre-injection” value in data set [5] is “without any significant increase”. In data set [5] (mouse, in vivo, iv, within 24 hours post-injection, read-out: injected dose excreted in urine), the dose excreted is greater than 95%. In data set [6], this compound came in with a r1 of 5.4 mM⁻¹ s⁻¹.

(Values after patent publication US11738099B2, “Molecular probes and methods of use” (CASE WESTERN RESERVE UNIVERSITY, priority 2014, dated 2023).)
